Test system: chronic graft-versus-host disease (cGVHD)
Test: Example 1 phase IIa study: response per 2014 NIH cGVHD criteria (ORR, BOR, DOR, TTR, TTNT, FFS, OS, organ response)
Type: in vivo, human
Conditions: for DOR, median (95% CI) / TTR, median: responder population
Excerpt: Eligible patients were allogeneic bone marrow transplant or allogeneic hematopoietic cell transplant (alloHCT) recipients of age≥18 years with persistent cGVHD manifestations after having received one to three prior systemic lines of therapy and who were receiving corticosteroid treatment with or without a calcincurin inhibitor and/or concurrent extracorporeal photopheresis.
Inclusion criteria. Adult male and female subjects at least 18 years of age who had allogenic bone marrow transplant or hematopoietic stem cell transplantation. Received glucocorticoid therapy and calcineurin therapy or glucocorticoid therapy alone for cGVHD at study entry. Participants on calcineurin therapy only, without glucocorticoid therapy, were not eligible. Participants also received other therapies thought not to be immunosuppressive (such as extracorporeal photopheresis; ECP), were considered for enrollment in this study on a case-by-case basis. […] No more than 3 prior lines of treatment for cGVHD. Karnofsky Performance Scale of greater than (>) 40.
Exclusion Criteria. Participant who was pregnant or breastfeeding. Received an investigational GVHD treatment within 28 days of study entry. Had acute GVHD. Taken any medication known to be a moderate or strong inhibitor of the cytochrome (CY) P3A4 isozyme or any drugs that are moderate or strong CYP3A4 inducers. History or other evidence of severe illness or any other conditions that would make the participant, in the opinion of the investigator, unsuitable for the study (such as poorly controlled psychiatric disease or coronary artery disease). Regular and excessive use of alcohol within the 6 months prior to study entry defined as alcohol intake>14 drinks per week in a man or >7 drinks per week in a woman. Approximately 10 grams of alcohol equals one “drink” unit. One unit equals 1 ounce of distilled spirits, one 12-ounce beer, or one 4-ounce glass of wine. Known history of human immunodeficiency virus or active hepatitis C virus or hepatitis B virus. Diagnosed with another malignancy (other than malignancy for which transplant was performed) within 3 years of enrollment, with the exception of completely resected basal cell or squamous cell carcinoma of the skin, resected in situ cervical malignancy, resected breast ductal carcinoma in situ, or low-risk prostate cancer after curative resection. Relapse of the underlying cancer or post-transplant lymphoproliferative disease at the time of screening. […] Taken other immunosuppressant drugs for GVHD, including mammalian target of rapamycin inhibitors (Note: Only steroids, calcineurin inhibitors, and ECP are acceptable). Corrected QT interval using Fridericia's formula >450 milliseconds.
(FIG. 1) Before enrollment of the subsequent cohort, safety data in each previous cohort were analyzed after eight patients reached two months of treatment to assure that there was no safety signal. […] No safety concerns were identified, allowing for planned dose escalation.
Progression was defined per the 2014 NIH cGVHD Consensus Criteria. Long-term follow-up was conducted every 8 weeks until study closeout. […] Screening was conducted within 28 days of the first study dose. Response was initially assessed after two cycles; however, this was amended to evaluate response on day 1 of each cycle, starting at cycle 2 day 1.
All responses were assessed by the investigators.
Assuming a best ORR of 25%, which was determined to be clinically meaningful, the study was expected to have approximately 90% probability to show a response in ≥2 patients per cohort. This study was not powered to show significant differences between cohorts with respect to efficacy, AEs, or PD analyses. The primary analysis was conducted using the safety population, defined as enrolled patients who received ≥1 dose of study medication. The Clopper-Pearson (exact) method was used to construct the two-sided 95% CI for ORR. The Kaplan-Meier (K-M) method was used to calculate estimates of FFS and OS. […]

**Q.** What does the source list for `CC(C)NC(=O)COc1cccc(-c2nc(Nc3ccc4[nH]ncc4c3)c3ccccc3n2)c1` [Belumosudil, 2-{3-[4-(1H-indazol-5-ylamino)-2-quinazolinyl]phenoxy}-N-(propan-2-yl) acetamide]?
**A.** BOR CR, participants (%) (Cohort 1 200 mg QD): 0 (0%) participants; BOR LOR-M, participants (%) (Cohort 1 200 mg QD): 2 (12%) participants; BOR LOR-P, participants (%) (Cohort 1 200 mg QD): 2 (12%) participants; BOR LOR-U, participants (%) (Cohort 1 200 mg QD): 2 (12%) participants; BOR PR, participants (%) (Cohort 1 200 mg QD): 11 (65%) participants; FFS, median (95% CI) (Cohort 1 200 mg QD): 11 (4-na* %) months; ORR subgroup refractory to previous LOT, n/N (Cohort 1 200 mg QD): 7/11; ORR subgroup severe cGVHD, n/N (Cohort 1 200 mg QD): 8/12; ORR subgroup ≤2 prior LOTs, n/N (Cohort 1 200 mg QD): 10/15; ORR subgroup ≤4 organs involved, n/N (Cohort 1 200 mg QD): 4/8; ORR, % (95% CI) (Cohort 1 200 mg QD): 65%; TTNT, median (95% CI) (Cohort 1 200 mg QD): 15 (5-NA* %) months; best response (CR or PR) in Skin, percentage of participants (Cohort 1 200 mg QD): (23%); best response in Esophagus, percentage of participants (Cohort 1 200 mg QD): (50%); best response in Eyes, percentage of participants (Cohort 1 200 mg QD): (36%); best response in Joints and Fascia, percentage of participants (Cohort 1 200 mg QD): (55%); best response in Lower GI tract, percentage of participants (Cohort 1 200 mg QD): (0%); best response in Lungs, percentage of participants (Cohort 1 200 mg QD): (0%); best response in Mouth, percentage of participants (Cohort 1 200 mg QD): (46%); best response in Upper GI tract, percentage of participants (Cohort 1 200 mg QD): (100%); DOR, median (95% CI) (Cohort 1, 200 mg QD): 40 (8-na* %) weeks; TTR, median (Cohort 1, 200 mg QD): 8.14 weeks; BOR CR, participants (%) (Cohort 2 200 mg BID): 0 (0%) participants; BOR LOR-M, participants (%) (Cohort 2 200 mg BID): 1 (6%) participants; BOR LOR-P, participants (%) (Cohort 2 200 mg BID): 1 (6%) participants; BOR LOR-U, participants (%) (Cohort 2 200 mg BID): 3 (19%) participants; BOR PR, participants (%) (Cohort 2 200 mg BID): 11 (69%) participants; FFS, median (95% CI) (Cohort 2 200 mg BID): 10 (4-19%) months; ORR subgroup refractory to previous LOT, n/N (Cohort 2 200 mg BID): 6/9; ORR subgroup severe cGVHD, n/N (Cohort 2 200 mg BID): 9/14; ORR subgroup ≤2 prior LOTs, n/N (Cohort 2 200 mg BID): 5/8; ORR subgroup ≤4 organs involved, n/N (Cohort 2 200 mg BID): 8/10; ORR, % (95% CI) (Cohort 2 200 mg BID): 69%; TTNT, median (95% CI) (Cohort 2 200 mg BID): 10 (4-19%) months; best response (CR or PR) in Skin, percentage of participants (Cohort 2 200 mg BID): (17%); best response in Eyes, percentage of participants (Cohort 2 200 mg BID): (36%); best response in Joints and Fascia, percentage of participants (Cohort 2 200 mg BID): (46%); best response in Liver, percentage of participants (Cohort 2 200 mg BID): (50%); best response in Lower GI tract, percentage of participants (Cohort 2 200 mg BID): (100%); best response in Lungs, percentage of participants (Cohort 2 200 mg BID): (0%); best response in Mouth, percentage of participants (Cohort 2 200 mg BID): (46%); best response in Upper GI tract, percentage of participants (Cohort 2 200 mg BID): (100%); DOR, median (95% CI) (Cohort 2, 200 mg BID): 11 (2-35%) weeks; TTR, median (Cohort 2, 200 mg BID): 8.14 weeks; BOR CR, participants (%) (Cohort 3 400 mg QD): 0 (0%) participants; BOR LOR-M, participants (%) (Cohort 3 400 mg QD): 0 (0%) participants; BOR LOR-P, participants (%) (Cohort 3 400 mg QD): 1 (5%) participants; BOR LOR-U, participants (%) (Cohort 3 400 mg QD): 4 (19%) participants; BOR PR, participants (%) (Cohort 3 400 mg QD): 12 (57%) participants; FFS, median (95% CI) (Cohort 3 400 mg QD): 10 (3-16%) months; ORR subgroup refractory to previous LOT, n/N (Cohort 3 400 mg QD): 9/15; ORR subgroup severe cGVHD, n/N (Cohort 3 400 mg QD): 8/16; ORR subgroup ≤2 prior LOTs, n/N (Cohort 3 400 mg QD): 8/12; ORR subgroup ≤4 organs involved, n/N (Cohort 3 400 mg QD): 7/9; ORR, % (95% CI) (Cohort 3 400 mg QD): 62%; TTNT, median (95% CI) (Cohort 3 400 mg QD): 14 (3-NA %) months; best response (CR or PR) in Skin, percentage of participants (Cohort 3 400 mg QD): (13%); best response in Esophagus, percentage of participants (Cohort 3 400 mg QD): (25%); best response in Eyes, percentage of participants (Cohort 3 400 mg QD): (24%); best response in Joints and Fascia, percentage of participants (Cohort 3 400 mg QD): (42%); best response in Lower GI tract, percentage of participants (Cohort 3 400 mg QD): (0%); best response in Lungs, percentage of participants (Cohort 3 400 mg QD): (30%); best response in Mouth, percentage of participants (Cohort 3 400 mg QD): (46%); best response in Upper GI tract, percentage of participants (Cohort 3 400 mg QD): (50%); DOR, median (95% CI) (Cohort 3, 400 mg QD): 16 (4-38%) weeks; TTR, median (Cohort 3, 400 mg QD): 8.07 weeks; 2-year OS rate (Example 1): 82%; 12-month FFS rate with response (Example 1): 24%; ORR among patients with nonsevere cGVHD (Example 1): 83%; median DOR across all responders (Example 1): 35 weeks; share of all responses achieved by first response assessment at week 8 (Example 1): > 75%; FFS rate (Example 1, at 6 months): 76%; FFS rate (Example 1, at 12 months): 47%; median TTNT (Example 1, pooled): 14 months; patients with progression in joints (Example 1, safety population (FIG. 3B)): 11 patients; ORR subgroup refractory to previous LOT, % (95% CI) (Total, N=54): 63%; ORR subgroup severe cGVHD, % (95% CI) (Total, N=54): 60%; ORR subgroup ≤2 prior LOTs, % (95% CI) (Total, N=54): 66%; ORR subgroup ≤4 organs involved, % (95% CI) (Total, N=54): 70%; ORR, % (95% CI) (Total, N=54): 65%; ORR subgroup refractory to previous LOT, n/N (Total, N=54, listed as KD025): 22/35; ORR subgroup severe cGVHD, n/N (Total, N=54, listed as KD025): 25/42; ORR subgroup ≤2 prior LOTs, n/N (Total, N=54, listed as KD025): 23/35; ORR subgroup ≤4 organs involved, n/N (Total, N=54, listed as KD025): 19/27
